From patent US20260130395A1, “Water Dispersible Botanical Compositions” (Aquila Black Limited, priority 2021, published 2026)

Experiment: Stability of cannabinoid compounds and Vitamin E components in Beverage 2 (AB Red) by LCMSMS
Assay type: physicochemical

## Cc1c(C)c2c(c(C)c1OC(=O)CCC(=O)O)CC[C@@](C)(CCC[C@H](C)CCC[C@H](C)CCCC(C)C)O2 [α-Tocopheryl succinate]
Stored at 8° C., 0 days
  Stability of Vitamin Es in AB Red: 12.5 µg/mL
Stored at 8° C., 1 days
  Stability of Vitamin Es in AB Red: 11.7 µg/mL
Stored at 8° C., 2 days
  Stability of Vitamin Es in AB Red: 11.7 µg/mL
Stored at 8° C., 3 days
  Stability of Vitamin Es in AB Red: 11.7 µg/mL
Stored at 8° C., 5 days
  Stability of Vitamin Es in AB Red: 11.5 µg/mL
Stored at 8° C., 8 days
  Stability of Vitamin Es in AB Red: 12.6 µg/mL
Stored at 8° C., 9 days
  Stability of Vitamin Es in AB Red: 11.8 µg/mL
Stored at 8° C., 10 days
  Stability of Vitamin Es in AB Red: 12.6 µg/mL
Stored at 8° C., 11 days
  Stability of Vitamin Es in AB Red: 12.1 µg/mL
Stored at 8° C., 12 days
  Stability of Vitamin Es in AB Red: 12.7 µg/mL
Stored at 8° C., 15 days
  Stability of Vitamin Es in AB Red: 12.5 µg/mL
Stored at 8° C., 16 days
  Stability of Vitamin Es in AB Red: 11.5 µg/mL
Stored at 8° C., 17 days
  Stability of Vitamin Es in AB Red: 12.4 µg/mL
Stored at 8° C., 18 days
  Stability of Vitamin Es in AB Red: 11.9 µg/mL
Stored at 8° C., 19 days
  Stability of Vitamin Es in AB Red: 11.7 µg/mL
Stored at 8° C., 22 days
  Stability of Vitamin Es in AB Red: 11.9 µg/mL
Stored at 8° C., 23 days
  Stability of Vitamin Es in AB Red: 12.0 µg/mL
Stored at 8° C., 24 days
  Stability of Vitamin Es in AB Red: 12.2 µg/mL
Stored at 8° C., 25 days
  Stability of Vitamin Es in AB Red: 12.0 µg/mL
Stored at 8° C., 26 days
  Stability of Vitamin Es in AB Red: 12.5 µg/mL
Stored at 8° C., 29 days
  Stability of Vitamin Es in AB Red: 11.6 µg/mL
Stored at 8° C., 30 days
  Stability of Vitamin Es in AB Red: 12.4 µg/mL
Stored at 8° C., 60 days
  Stability of Vitamin Es in AB Red: 11.4 µg/mL
Stored at 8° C., 90 days
  Stability of Vitamin Es in AB Red: 11.5 µg/mL
Stored at 8° C., 120 days
  Stability of Vitamin Es in AB Red: 12.2 µg/mL
Stored at 8° C., 150 days
  Stability of Vitamin Es in AB Red: 11.5 µg/mL
Stored at 8° C., 180 days
  Stability of Vitamin Es in AB Red: 11.4 µg/mL
Stored at 8° C., 210 days
  Stability of Vitamin Es in AB Red: 11.4 µg/mL
Stored at 8° C., 240 days
  Stability of Vitamin Es in AB Red: 11.6 µg/mL
Stored at 8° C., 270 days
  Stability of Vitamin Es in AB Red: 11.5 µg/mL
Stored at 8° C., 300 days
  Stability of Vitamin Es in AB Red: 11.2 µg/mL
Stored at 8° C., 330 days
  Stability of Vitamin Es in AB Red: 11.7 µg/mL
Stored at 8° C., 360 days
  Stability of Vitamin Es in AB Red: 11.3 µg/mL
Stored at 8° C., 390 days
  Stability of Vitamin Es in AB Red: 11.2 µg/mL
Stored at 8° C., 420 days
  Stability of Vitamin Es in AB Red: 11.0 µg/mL
Stored at 8° C., 450 days
  Stability of Vitamin Es in AB Red: 11.2 µg/mL
Stored at 8° C., 480 days
  Stability of Vitamin Es in AB Red: 10.9 µg/mL
Stored at 8° C., 510 days
  Stability of Vitamin Es in AB Red: 10.8 µg/mL
Stored at 8° C., 540 days
  Stability of Vitamin Es in AB Red: 10.9 µg/mL
Stored at 8° C., 570 days
  Stability of Vitamin Es in AB Red: 10.6 µg/mL
Stored at 21-25° C., 0 days
  Stability of Vitamin Es in AB Red: 12.5 µg/mL
Stored at 21-25° C., 1 days
  Stability of Vitamin Es in AB Red: 12.5 µg/mL
Stored at 21-25° C., 2 days
  Stability of Vitamin Es in AB Red: 12.0 µg/mL
Stored at 21-25° C., 3 days
  Stability of Vitamin Es in AB Red: 11.9 µg/mL
Stored at 21-25° C., 5 days
  Stability of Vitamin Es in AB Red: 11.9 µg/mL
Stored at 21-25° C., 8 days
  Stability of Vitamin Es in AB Red: 12.0 µg/mL
Stored at 21-25° C., 9 days
  Stability of Vitamin Es in AB Red: 11.7 µg/mL
Stored at 21-25° C., 10 days
  Stability of Vitamin Es in AB Red: 12.0 µg/mL
Stored at 21-25° C., 11 days
  Stability of Vitamin Es in AB Red: 12.0 µg/mL
Stored at 21-25° C., 12 days
  Stability of Vitamin Es in AB Red: 12.4 µg/mL
Stored at 21-25° C., 15 days
  Stability of Vitamin Es in AB Red: 11.6 µg/mL
Stored at 21-25° C., 16 days
  Stability of Vitamin Es in AB Red: 11.6 µg/mL
Stored at 21-25° C., 17 days
  Stability of Vitamin Es in AB Red: 12.6 µg/mL
Stored at 21-25° C., 18 days
  Stability of Vitamin Es in AB Red: 12.1 µg/mL
Stored at 21-25° C., 19 days
  Stability of Vitamin Es in AB Red: 11.9 µg/mL
Stored at 21-25° C., 22 days
  Stability of Vitamin Es in AB Red: 11.6 µg/mL
Stored at 21-25° C., 23 days
  Stability of Vitamin Es in AB Red: 12.7 µg/mL
Stored at 21-25° C., 24 days
  Stability of Vitamin Es in AB Red: 12.4 µg/mL
Stored at 21-25° C., 25 days
  Stability of Vitamin Es in AB Red: 11.9 µg/mL
Stored at 21-25° C., 26 days
  Stability of Vitamin Es in AB Red: 12.1 µg/mL
Stored at 21-25° C., 29 days
  Stability of Vitamin Es in AB Red: 12.4 µg/mL
Stored at 21-25° C., 30 days
  Stability of Vitamin Es in AB Red: 12.1 µg/mL
Stored at 21-25° C., 60 days
  Stability of Vitamin Es in AB Red: 11.7 µg/mL
Stored at 21-25° C., 90 days
  Stability of Vitamin Es in AB Red: 11.6 µg/mL
Stored at 21-25° C., 120 days
  Stability of Vitamin Es in AB Red: 11.5 µg/mL
Stored at 21-25° C., 150 days
  Stability of Vitamin Es in AB Red: 11.4 µg/mL
Stored at 21-25° C., 180 days
  Stability of Vitamin Es in AB Red: 12.3 µg/mL
Stored at 21-25° C., 210 days
  Stability of Vitamin Es in AB Red: 11.6 µg/mL
Stored at 21-25° C., 240 days
  Stability of Vitamin Es in AB Red: 11.6 µg/mL
Stored at 21-25° C., 270 days
  Stability of Vitamin Es in AB Red: 11.0 µg/mL
Stored at 21-25° C., 300 days
  Stability of Vitamin Es in AB Red: 11.4 µg/mL
Stored at 21-25° C., 330 days
  Stability of Vitamin Es in AB Red: 11.4 µg/mL
Stored at 21-25° C., 360 days
  Stability of Vitamin Es in AB Red: 11.1 µg/mL
Stored at 21-25° C., 390 days
  Stability of Vitamin Es in AB Red: 10.8 µg/mL
Stored at 21-25° C., 420 days
  Stability of Vitamin Es in AB Red: 11.0 µg/mL
Stored at 21-25° C., 450 days
  Stability of Vitamin Es in AB Red: 11.2 µg/mL
Stored at 21-25° C., 480 days
  Stability of Vitamin Es in AB Red: 10.4 µg/mL
Stored at 21-25° C., 510 days
  Stability of Vitamin Es in AB Red: 10.6 µg/mL
Stored at 21-25° C., 540 days
  Stability of Vitamin Es in AB Red: 10.3 µg/mL
Stored at 21-25° C., 570 days
  Stability of Vitamin Es in AB Red: 10.6 µg/mL
